In US11459338B2, “Heterocyclic compounds as PRMT5 inhibitors” (JUBILANT EPISCRIBE LLC, priority 2018, dated 2022) one finds IC50 and GI50 data, which are given here for 19 molecules.

The GI50 is the concentration that inhibits growth by half.

For one assay, the target named is T1, PRMT5/MEP50 (Homo sapiens, UniProt O14744).
T1 construct: Full-length human PRMT5 (NP_006100)
Nature of the assay: PRMT5/MEP50 enzyme assay on peptide substrates (3H-SAM Flashplate). The assay is classed as biochemical. Particulars: PRMT5/MEP50 10 nM, H4 1-15aa peptide 100 nM, 3H-SAM 1 μM.

Another assay deals with Z-138 cells. Nature of the assay: Z-138 long term proliferation assay (Cell Titer Glo). The assay is classed as cell-based. Particulars: Homo sapiens; for GI50: 192 h, Z-138 cells, cell viability, day 8, read-out: PRMT5 Z138 GI50 Day 8 μM; for IC50: Z-138, 192 h, summary of Table 1, read-out: IC50 value (all the three assays): Z138 GI50 Day 8. The method in brief: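 Z-138 cells exposed to ten-point 3-fold dilutions (top 10 μM, 0.3% DMSO) for 96 h at 37° C., 5% CO2, then re-dosed for four more days.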

In assay [1] the test system is Symmetric di-methyl arginine in Z-138 cells. In words: Z-138 methylation assay, ELISA for detection of symmetric di-methyl arginine. The assay is classed as cell-based. Particulars: Homo sapiens. As to the method:
General reagents. […] Iscove's Modified Dulbecco's Medium (IMDM), Horse serum, penicillin-streptomycin, PBS and TMB-ELISA substrate solution were purchased from ThermoFisher Scientific. Symmetric di-methyl arginine antibody was purchased from Cell Signaling Technologies.Anti-SNRPD3/SmD3 antibody was purchased from Sigma-Aldrich.
ELISA for detection of Symmetric di-methyl arginine. […] A compound source plate was prepared by performing ten-point 3-fold dilution in DMSO, such that the final top concentration of the compound was 10 μM, and DMSO was 0.3%. The total volume of compounds added was 20 μL. The cells were incubated for 96 h at 37° C., 5% CO2. Z-138 cells were directly lysed in media with 3× Lysis Buffer (1×: 10 mM HEPES pH7.9, 5 mM MgCl2, 1M NaCl, 0.25M Sucrose, 1% Triton X-100, 1 mM PMSF, Protease & Phosphatase inhibitors). […] Plates were incubated at room temperature for a minimum of 3 h and then washed with PBS-Tween 20 (0.05%). The plates were blocked with 5% BSA at room temperature for 1 h, washed with PBS-Tween 20 and incubated with primary antibody at 4 C overnight.
A general note: An ELISA detects its analyte on a solid surface through an enzyme-linked reagent.

Where [2] appears, read: Z-138 cells, 96 h (day 4), read-out: PRMT5 Z138 SDMA ELISA Day 4 μM.
[3] abbreviates: Z-138, 96 h, summary of Table 1, read-out: IC50 value (all the three assays): Z138 SDMA ELISA Day 4.

The structures appear in SMILES notation. Read-outs that look alike come from different tables or passages of the source. Some results are limits rather than exact numbers.

T1 sequence (O14744 whole entry): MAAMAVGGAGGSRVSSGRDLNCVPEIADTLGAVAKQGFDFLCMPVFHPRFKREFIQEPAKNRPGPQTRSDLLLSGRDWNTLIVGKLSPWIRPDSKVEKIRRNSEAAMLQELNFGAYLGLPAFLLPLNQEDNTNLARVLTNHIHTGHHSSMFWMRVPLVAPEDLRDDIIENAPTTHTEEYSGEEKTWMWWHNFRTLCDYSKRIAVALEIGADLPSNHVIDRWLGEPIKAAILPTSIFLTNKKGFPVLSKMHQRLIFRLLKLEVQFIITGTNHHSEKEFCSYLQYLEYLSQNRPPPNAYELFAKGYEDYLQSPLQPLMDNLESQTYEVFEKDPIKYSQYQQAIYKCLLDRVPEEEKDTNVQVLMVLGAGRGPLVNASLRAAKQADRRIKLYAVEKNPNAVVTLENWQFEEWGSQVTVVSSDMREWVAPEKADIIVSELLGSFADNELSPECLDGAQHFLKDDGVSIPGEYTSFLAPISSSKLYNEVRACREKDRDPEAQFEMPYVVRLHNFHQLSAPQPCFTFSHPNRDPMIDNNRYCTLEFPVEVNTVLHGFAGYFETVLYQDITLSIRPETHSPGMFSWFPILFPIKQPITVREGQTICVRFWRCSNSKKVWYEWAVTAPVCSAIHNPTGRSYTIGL
T1 sequence (Q9BQA1 whole entry partner): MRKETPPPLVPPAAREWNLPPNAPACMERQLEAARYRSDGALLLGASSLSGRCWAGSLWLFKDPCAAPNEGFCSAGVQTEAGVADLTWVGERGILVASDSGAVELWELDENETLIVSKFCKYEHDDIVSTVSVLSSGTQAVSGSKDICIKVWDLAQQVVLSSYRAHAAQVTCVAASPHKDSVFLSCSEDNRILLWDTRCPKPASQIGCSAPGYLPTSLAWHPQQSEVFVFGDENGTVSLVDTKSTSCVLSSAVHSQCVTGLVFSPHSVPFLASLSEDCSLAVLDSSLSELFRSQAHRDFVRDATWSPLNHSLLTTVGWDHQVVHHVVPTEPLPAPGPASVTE

For `CN(C[C@H](O)CN1CCc2ccccc2C1)C(=O)c1cn2cc(-c3ccn(C)c(=O)c3)ncc2n1` [Example 93, (R)—N-(3-(3,4-dihydroisoquinolin-2(1H)-yl)-2-hydroxypropyl)-N-methyl-6-(1-methyl-2-oxo-1,2-dihydropyridin-4-yl)imidazo[1,2-a]pyrazine-2-carboxamide], the IC50 (against PRMT5/MEP50; in assay [1] (setting [2])) was 0.01 to 1 µM each time. For the same molecule, the GI50 in the assay on Z-138 cells lay within 1 to 5 µM.

For the molecule `CC(C)Cn1cc(-c2ccc3nc(C(=O)NCC(O)CN4CCc5ccccc5C4)cn3c2)cn1` (stereo in doubt) [Example 18, (S)—N-(3-(3,4-dihydroisoquinolin-2(1H)-yl)-2-hydroxypropyl)-6-(1-isobutyl-1H-pyrazol-4-yl)imidazo[1,2-a]pyridine-2-carboxamide], the IC50 (on PRMT5/MEP50; with Z-138 cells; in assay [1] (setting [3]); in assay [1] (setting [2])) was 0.01 to 1 µM in each case. In addition, the GI50 in the assay with Z-138 cells was in the range of 0.01 to 1 µM.

For `CC(C)C1CCc2nc(C(=O)NC[C@H](O)CN3CCc4ccccc4C3)cn2C1` (stereo partly drawn) [Example 108, N—((S)-3-(3,4-dihydroisoquinolin-2(1H)-yl)-2-hydroxypropyl)-6-isopropyl-5,6,7,8-tetrahydroimidazo[1,2-a]pyridine-2-carboxamide], the IC50 against PRMT5/MEP50 lay in the range of 1 to 5 µM; in assay [1] (setting [2]), 0.01 to 1 µM. Also, the GI50 in the assay with Z-138 cells lay within 0.01 to 1 µM.

For the molecule `O=C(NC(CO)CCN1CCc2ccccc2C1)c1cn2cc(C(F)(F)F)ccc2n1` (centres unmarked) [Example 100, N-(4-(3,4-dihydroisoquinolin-2(1H)-yl)-1-hydroxybutan-2-yl)-6-(trifluoromethyl)imidazo[1,2-a]pyridine-2-carboxamide], the figures for the IC50 (against PRMT5/MEP50; in assay [1] (setting [2])) were 1 to 5 µM and 0.01 to 1 µM, respectively. Besides, in the assay with Z-138 cells, the GI50 lay in the range of 1 to 5 µM.

On to `O=C(NC[C@H](O)CN1CCc2ccccc2C1)c1cn2cc(N3CCC3)ccc2n1` [Example 69, (S)-6-(azetidin-1-yl)-N-(3-(3,4-dihydroisoquinolin-2(1H)-yl)-2-hydroxypropyl)imidazo[1,2-a]pyridine-2-carboxamide], for which the IC50 (against PRMT5/MEP50; in assay [1] (setting [2])) was 0.01 to 1 µM in each case. For the same molecule, in the assay with Z-138 cells, the GI50 was in the range of 1 to 5 µM.

As to `N#Cc1ccc(-c2ccc3nc(C(=O)NC[C@H](O)CN4CCc5ccccc5C4)cn3c2)cc1` [Example 14, (S)-6-(4-cyanophenyl)-N-(3-(3,4-dihydroisoquinolin-2(1H)-yl)-2-hydroxypropyl) imidazo[1,2-a]pyridine-2-carboxamide], the IC50 (at PRMT5/MEP50; in the assay with Z-138 cells; in assay [1] (setting [3]); in assay [1] (setting [2])) was 0.01 to 1 µM each time. In addition, the GI50 in the assay with Z-138 cells was in the range of 0.01 to 1 µM.

As to `O=C(NC[C@H](O)CN1CCc2ccccc2C1)c1cn2cc(C(F)(F)F)cnc2n1` [Example 42], the IC50 (at PRMT5/MEP50; in assay [1] (setting [2])) was 0.01 to 1 µM each time. Besides, the GI50 in the assay with Z-138 cells is 1 to 5 µM.

Regarding `Cc1ccc2nc(C(=O)NCC(O)CN3CCc4ccccc4C3)cn2c1` (centres unmarked) [Example 2, N-(3-(3,4-dihydroisoquinolin-2(1H)-yl)-2-hydroxypropyl)-6-methylimidazo[1,2-a]pyridine-2-carboxamide], the IC50 (against PRMT5/MEP50; in the assay on Z-138 cells; in assay [1] (setting [3]); in assay [1] (setting [2])) was 0.01 to 1 µM throughout. Besides, in the assay with Z-138 cells, the GI50 fell in the range of 0.01 to 1 µM.

Consider `CC(C)N1CCn2cc(C(=O)NCC(O)CN3CCc4ccccc4C3)nc2C1` (centres unmarked) [Example 113, N-(3-(3,4-dihydroisoquinolin-2(1H)-yl)-2-hydroxypropyl)-7-isopropyl-5,6,7,8-tetrahydroimidazo [1,2-a] pyrazine-2-carboxamide], for which the IC50 on PRMT5/MEP50 is more than 5 µM; in assay [1] (setting [2]), 1 to 5 µM. The GI50 in the assay on Z-138 cells is more than 5 µM.

As for `O=C(NC[C@H](O)CN1CCc2ccccc2C1)c1cn2c(n1)CCC(C1CC1)C2` (stereo partly drawn) [Example 104, 6-cyclopropyl-N—((S)-3-(3,4-dihydroisoquinolin-2(1H)-yl)-2-hydroxypropyl)-5,6,7,8-tetrahydroimidazo[1,2-a]pyridine-2-carboxamide], the GI50 with Z-138 cells lay in the range of 1 to 5 µM. Also, the IC50 in assay [1] (setting [2]) lay in the range of 0.01 to 1 µM.

`CCCC1CCn2cc(C(=O)NCC(O)CN3CCc4ccccc4C3)nc2C1` (centres unmarked) [Example 105, N-(3-(3,4-dihydroisoquinolin-2(1H)-yl)-2-hydroxypropyl)-7-propyl-5,6,7,8 tetrahydroimidazo[1,2-a]pyridine-2-carboxamide]: in the assay on Z-138 cells, the GI50 was in the range of 1 to 5 µM. Also, the IC50 in assay [1] (setting [2]) lay within 0.01 to 1 µM.

On to `Cn1cc(-c2ccc3nc(C(=O)NC[C@H](O)CN4CCc5cc(F)ccc5C4)cn3c2)cn1` [Example 82, (S)—N-(3-(6-fluoro-3,4-dihydroisoquinolin-2(1H)-yl)-2-hydroxypropyl)-6-(1-methyl-1H-pyrazol-4-yl)imidazo[1,2-a]pyridine-2-carboxamide], for which, at PRMT5/MEP50, the IC50 is 1 to 5 µM. Also, in the assay with Z-138 cells, the GI50 is 1 to 5 µM.

Molecule `CN(C[C@H](O)CN1CCc2ccccc2C1)C(=O)c1cn2c(n1)CCC(C(F)(F)F)C2` (some centres unmarked) [Example 119] yielded an IC50 on PRMT5/MEP50 of 0.01 to 1 µM. The GI50 in the assay with Z-138 cells was 0.01 to 1 µM.

`Cc1c(C(=O)NC[C@H](O)CN2CCc3ccccc3C2)nc2cnc(-c3ccc(=O)n(C)c3)cn12` [Example 66, (S)—N-(3-(3,4-dihydroisoquinolin-2(1H)-yl)-2-hydroxypropyl)-3-methyl-6-(1-methyl-6-oxo-1,6-dihydropyridin-3-yl)imidazo[1,2-a]pyrazine-2-carboxamide] had an IC50 against PRMT5/MEP50 of 0.01 to 1 µM. Also, in the assay on Z-138 cells, the GI50 was 0.01 to 1 µM.

Regarding `O=C(NC[C@H](O)CN1CCc2ccccc2C1)c1cn2cc(C3(O)COC3)ccc2n1` [Example 61, (S)—N-(3-(3,4-dihydroisoquinolin-2(1H)-yl)-2-hydroxypropyl)-6-(3-hydroxyoxetan-3-yl)imidazo[1,2-a]pyridine-2-carboxamide], on PRMT5/MEP50, the IC50 lay within 1 to 5 µM. Besides, in the assay with Z-138 cells, the GI50 was 1 to 5 µM.

On to `O=C(NC[C@H](O)CN1CCc2ccccc2C1)c1cc2nc(C(F)(F)F)ccn2n1` [Example 60, (S)—N-(3-(3,4-dihydroisoquinolin-2(1H)-yl)-2-hydroxypropyl)-5-(trifluoromethyl)pyrazolo[1,5-a]pyrimidine-2-carboxamide], for which the IC50 at PRMT5/MEP50 is 1 to 5 µM. The GI50 in the assay with Z-138 cells lay within 1 to 5 µM.

Turning to `CN(C[C@H](O)CN1CCc2ccccc2C1)C(=O)c1cn2nc(C(F)(F)F)ccc2n1` [Example 91, (R)—N-(3-(3,4-dihydroisoquinolin-2(1H)-yl)-2-hydroxypropyl)-N-methyl-6-(trifluoromethyl)imidazo[1,2-b]pyridazine-2-carboxamide], the IC50 against PRMT5/MEP50 fell in the range of 1 to 5 µM. In the assay on Z-138 cells, the 50% growth inhibitory concentration (GI50) was more than 5 µM.

At PRMT5/MEP50, `Cc1ccc2nc(C(=O)NC[C@H](O)CN3CCc4ccccc4C3)cn2n1` [Example 56, (S)—N-(3-(3,4-dihydroisoquinolin-2(1H)-yl)-2-hydroxypropyl)-6-methylimidazo[1,2-b]pyridazine-2-carboxamide] came in with an IC50 of 1 to 5 µM. Besides, the 50% growth inhibitory concentration (GI50) with Z-138 cells is more than 5 µM.

`O=C(NC[C@H](O)CN1CCc2ccccc2C1)c1cn2cc(N3CCOCC3)ccc2n1` [Example 72, (S)—N-(3-(3,4-dihydroisoquinolin-2(1H)-yl)-2-hydroxypropyl)-6-morpholinoimidazo[1,2-a]pyridine-2-carboxamide] showed an IC50 on PRMT5/MEP50 of 0.01 to 1 µM. Moreover, the GI50 with Z-138 cells fell in the range of 1 to 5 µM.
